Patent US20230053688A1, “METHODS TO ALTER LATENCY IN EBV+ MALIGNANCIES” (Cornell University, priority 2020, published 2023)
Counter-ions that a name gives are not always drawn. Like-named read-outs stand apart in the source and are kept apart here.

Tested on: LMP1 expression in Kem I cells
Assay: microbe, parasite or virus in culture
Assay type: cell-based, EBV
Settings: for fold induction at 2.5 µM: human gammaherpesvirus 4, 48 h; for Average LMP1 Fold Increase / Replicate 1-LMP1 Fold Increase / Replicate 2-LMP1 Fold Increase: Kem I cells, 48 hours
[1] = read-out: Average LMP1 Fold Increase, Kem I cells, dose 2.5 uM, 48 hours, LMP1 transcript by in-well qRT-PCR, average of the two replicates
[2] = read-out: Replicate 1-LMP1 Fold Increase, Kem I cells, dose 2.5 uM, 48 hours, LMP1 transcript by in-well qRT-PCR, screen replicate 1
[3] = read-out: Replicate 2-LMP1 Fold Increase, Kem I cells, dose 2.5 uM, 48 hours, LMP1 transcript by in-well qRT-PCR, screen replicate 2
[4] = read-out: Average LMP1 Fold Increase, Kem I cells, 2.5 uM, 48 hours, average of replicates 1 and 2
[5] = read-out: Replicate 1-LMP1 Fold Increase, Kem I cells, 2.5 uM, 48 hours, fold change in LMP1 transcript vs vehicle
[6] = read-out: Replicate 2-LMP1 Fold Increase, Kem I cells, 2.5 uM, 48 hours, fold change in LMP1 transcript vs vehicle
[7] = 2.5 uM, average of replicates 1 and 2
[8] = 2.5 uM, fold change in LMP1 transcript vs vehicle
[9] = dose 2.5 uM, LMP1 transcript by in-well qRT-PCR, average of the two replicates
[10] = dose 2.5 uM, LMP1 transcript by in-well qRT-PCR, screen replicate 1
[11] = dose 2.5 uM, LMP1 transcript by in-well qRT-PCR, screen replicate 2

Molecule | fold induction at 2.5 µM [4] | fold induction at 2.5 µM [5] | fold induction at 2.5 µM [6] | Average LMP1 Fold Increase [7] | Replicate 1-LMP1 Fold Increase [8] | Replicate 2-LMP1 Fold Increase [8] | other results
CCC(COC(=O)c1cc(OC)c(OC)c(OC)c1)(c1ccccc1)N(C)C (stereo not drawn) [Trimebutine] | – | – | – | – | – | – | fold induction at 2.5 µM [1]: 1.37; fold induction at 2.5 µM [2]: 2.11; fold induction at 2.5 µM [3]: 0.63
Cc1c(Cl)cccc1Nc1ccccc1C(=O)O [Tolfenamic Acid] | – | – | – | – | – | – | fold induction at 2.5 µM [1]: 0.15; fold induction at 2.5 µM [2]: 0.11; fold induction at 2.5 µM [3]: 0.2
CC(C)C[C@H](NC(=O)CNC(=O)c1cc(Cl)ccc1Cl)B(O)O [MLN2238] | 112 | 86.8 | 138 | – | – | – | –
COCCCC/C(=N\OCCN)c1ccc(C(F)(F)F)cc1 [Fluvoxamine maleate] | 0.67 | 0.97 | 0.37 | – | – | – | –
CNC(=O)c1ccc(N2C(=S)N(c3ccc(C#N)c(C(F)(F)F)c3)C(=O)C2(C)C)cc1F [Enzalutamide (MDV3100)] | – | – | – | 0.96 | 0.88 | 1.05 | –
Nc1nc(CC(=O)Nc2ccc(CCNC[C@H](O)c3ccccc3)cc2)cs1 [Mirabegron] | 0.75 | 0.74 | 0.76 | – | – | – | –
Cc1[nH]c2ccccc2c1CCNCc1ccc(/C=C/C(=O)NO)cc1 [Panobinostat (LBH589)] | – | – | – | 383.26 | 451.65 | 314.88 | –
O=C(O)/C=C/c1ccc(Cn2ccnc2)cc1 [Ozagrel HCl] | – | – | – | 0.79 | 0.85 | 0.72 | –
C[C@]1(O)C[C@@H](c2nc(-c3ccc4ccc(-c5ccccc5)nc4c3)c3c(N)nccn32)C1 [OSI-906 (Linsitinib)] | – | – | – | 0.81 | 0.68 | 0.94 | –
O=C(Nc1ccccc1Br)N[C@@H]1CCN(c2ccc(C(F)(F)F)cn2)C1 [SB705498] | – | – | – | 0.43 | 0.38 | 0.48 | –
Pifithrin-μ | – | – | – | 0.78 | 0.40 | 1.17 | –
Cc1cn([C@H]2C=C[C@@H](CO)O2)c(=O)[nH]c1=O [Stavudine (d4T)] | – | – | – | 0.73 | 0.83 | 0.63 | –
COc1ccc([C@]2(C#N)CC[C@@H](C(=O)O)CC2)cc1OC1CCCC1 [Cilomilast] | 1.06 | 0.95 | 1.18 | – | – | – | –
SN-38 | – | – | – | 1.10 | 0.95 | 1.26 | –
Cc1ccc2c(=O)c3cccc(CC(=O)O)c3oc2c1C [DMXAA (Vadimezan)] | – | – | – | 0.87 | 0.44 | 1.29 | –
COc1cc2/c(=N/c3ccc(Br)cc3F)nc[nH]c2cc1OCC1CCN(C)CC1 [Vandetanib (ZD6474)] | – | – | – | – | – | – | Average LMP1 Fold Increase [9]: 1.14 fold; Replicate 1-LMP1 Fold Increase [10]: 0.81 fold; Replicate 2-LMP1 Fold Increase [11]: 1.47 fold
COc1ccccc1Oc1c(NS(=O)(=O)c2ccc(C(C)(C)C)cc2)nc(-c2ncccn2)nc1OCCO [Bosentan Hydrate] | 0.81 | 1.22 | 0.4 | – | – | – | –
OG-L002 | – | – | – | 1.15 | 1.03 | 1.27 | –

Molecule | fold induction at 2.5 µM [4] | fold induction at 2.5 µM [5] | fold induction at 2.5 µM [6] | Average LMP1 Fold Increase [7] | Replicate 1-LMP1 Fold Increase [8] | Replicate 2-LMP1 Fold Increase [8] | other results
C=C[C@@]1(C)CC(=O)[C@]2(O)[C@@]3(C)[C@@H](O)CCC(C)(C)[C@@H]3[C@H](O)[C@H](OC(C)=O)[C@@]2(C)O1 [Forskolin] | 1.25 | 1.39 | 1.11 | – | – | – | –
Cc1cc(Nc2cc(CN3CCOCC3)c3nc(C)c(Cc4ccc(Cl)cc4F)n3n2)n[nH]1 [LY2784544] | – | – | – | 0.94 | 1.24 | 0.65 | –
COc1cc(OC2CCN(C)CC2)ccc1Nc1ncc2c(n1)n(C1CCCC1)c(=O)n2C [AZ 3146] | – | – | – | 0.61 | 0.66 | 0.57 | –
OC(CNCC(O)C1CCc2cc(F)ccc2O1)C1CCc2cc(F)ccc2O1 (stereo not drawn) [Nebivolol] | 1.16 | 0.83 | 1.49 | – | – | – | –
C[C@H](Cn1cnc2c(N)ncnc21)OCP(=O)(O)O [Tenofovir] | – | – | – | – | – | – | Average LMP1 Fold Increase [9]: 0.18 fold; Replicate 1-LMP1 Fold Increase [10]: 0.18 fold; Replicate 2-LMP1 Fold Increase [11]: 0.19 fold
VU 0364770 | – | – | – | – | – | – | Average LMP1 Fold Increase [9]: 1.03 fold; Replicate 1-LMP1 Fold Increase [10]: 0.51 fold; Replicate 2-LMP1 Fold Increase [11]: 1.55 fold
COc1cc2nc(N3CCN(C(=O)C4COc5ccccc5O4)CC3)nc(N)c2cc1OC (stereo not drawn) [Doxazosin Mesylate] | 0.81 | 0.67 | 0.95 | – | – | – | –
CC[C@@H]1C(=O)N(C)c2cnc(Nc3ccc(C(=O)NC4CCN(C)CC4)cc3OC)nc2N1C1CCCC1 [BI 2536] | 12.6 | 23.3 | 1.89 | – | – | – | –
Cc1[nH]c2ccccc2c1CCNC(=O)c1cccs1 [CK-636] | – | – | – | 1.27 | 0.69 | 1.84 | –
Cc1ccccc1C(=O)Nc1ccc(C(=O)N2CCCC(N(C)C)c3ccccc32)cc1 (stereo not drawn) [Mozavaptan] | 0.61 | 0.32 | 0.9 | – | – | – | –
C[C@@H](O[C@H]1OCCN(Cc2n[nH]c(=O)[nH]2)[C@H]1c1ccc(F)cc1)c1cc(C(F)(F)F)cc(C(F)(F)F)c1 [Aprepitant] | 0.99 | 1.58 | 0.41 | – | – | – | –
CO[C@H]1C[C@@H]2CC[C@@H](C)[C@@](O)(O2)C(=O)C(=O)N2CCCC[C@H]2C(=O)O[C@H]([C@H](C)C[C@@H]2CC[C@@H](OP(C)(C)=O)[C@H](OC)C2)CC(=O)[C@H](C)/C=C(\C)[C@@H](O)[C@@H](OC)C(=O)[C@H](C)C[C@H](C)/C=C/C=C/C=C/1C [Ridaforolimus (Deforolimus, MK-8669)] | – | – | – | 3.37 | 6.08 | 0.67 | –
COc1ccc2c(c1)C(=O)N(CCc1ccc(S(=O)(=O)NC(=O)NC3CCCCC3)cc1)C(=O)C2(C)C [Gliquidone] | 0.77 | 0.81 | 0.73 | – | – | – | –
CC1(C)CCC(CN2CCN(c3ccc(C(=O)NS(=O)(=O)c4ccc(NCC5CCOCC5)c([N+](=O)[O-])c4)c(Oc4cnc5[nH]ccc5c4)c3)CC2)=C(c2ccc(Cl)cc2)C1 [ABT-199 (GDC-0199)] | – | – | – | 0.75 | 0.51 | 0.98 | –
CCn1c(N)c(C(=O)NC)c(=O)c2ccc(C#C[C@@](C)(O)COC)nc21 [SAR131675] | – | – | – | 0.40 | 0.30 | 0.49 | –
Nc1nc(N)c2nc(-c3ccccc3)c(N)nc2n1 [Triamterene] | – | – | – | – | – | – | fold induction at 2.5 µM [1]: 0.91; fold induction at 2.5 µM [2]: 0.56; fold induction at 2.5 µM [3]: 1.26
C[S+]([O-])c1ccc(-c2nc(-c3ccc(F)cc3)c(-c3ccncc3)[nH]2)cc1 (stereo not drawn) [SB203580] | – | – | – | 0.57 | 0.54 | 0.59 | –
